Reference: patent publication US20140037642A1, “METHODS AND COMPOSITIONS RELATING TO INHIBITION OF IGF-1R” (AMGEN INC., priority 2011, published 2014)
Read-outs that look alike come from different tables or passages of the source.

Key:
[1] = system: metastatic pancreatic cancer patients; conditions: for OS, HR (95% CI) for one unit increment in logAUCss / PFS, HR (95% CI) for one unit increment in logAUCss: univariate Cox model
Protocol: Multivariate analysis was performed to evaluate the effect of exposure on OS and PFS adjusting for potential confounding factors using Cox proportional hazard models with a forward selection technique. All baseline factors were initial candidates in the forward selection model. Only the most statistically significant variables were added to the final model after the forward selection process.
The effect of exposure on the incidence of selected adverse events (hearing and vestibular disorders, hepatic disorders, hyperglycemia, infusion reaction, neutropenia, rash and skin-related toxicity, thrombocytopenia, and venous embolic and thrombotic events) was summarized with descriptive statistics.
The effect of exposure on changes in selected laboratory values (aspartate transaminase, alanine transaminase, fasting glucose, total neutrophils, and platelets) was assessed by linear regression.

[2] = system: metastatic pancreatic cancer patients; assay: Overall survival in baseline circulating biomarker subgroups of the phase 2 study; assay type: in vivo, human; design: Median OS: unit not given here
Description: To establish the relationship between levels of these baseline markers and overall survival, a Cox proportional hazard model was used to calculate hazard ratios (HR) using normalized log transformed marker concentrations. This analysis tests the risk of death associated with a unit increase in the normalized log baseline biomarker and this risk is expressed as a hazard ratio. Because of the small sample size, it is difficult to dissect prognostic associations from relationships that are modified by treatment with ganitumab relative to placebo, i.e., predictive. This is because the addition of treatment effect adds a variable to the analysis that compromises the power of the test masking significant predictive relationships that may exist. However even a prognostic relationship identified in this analysis is important because it informs the hypothesized relationship between circulating bioavailable ligands and the adaptation of the tumor to IGF-1R dependent progression, and in turn sensitivity to inhibitors that block IGF-1R or downstream signaling pathways.
This allows a direct test of the predictive value of using these markers in a dichotomized way to predict OS in pancreatic cancer patients that are treated with inhibitors of IGF-1R.
To represent these relationships Kaplan-Maier plots were generated that show the OS for the high and low subgroups by plotting the fraction of patients in each sub-group that survive against time.

[3] = system: metastatic pancreatic cancer patients; assay: Placebo-controlled, randomized phase 2 study plus gemcitabine; assay type: in vivo, human; conditions: for 6-Month OS Rate (95% CI) / 12-Month OS Rate (95% CI) / Median OS, Months (95% CI) / Median PFS, Months (95% CI): conatumumab 10 mg/kg Q2W or ganitumab 12 mg/kg Q2W; for Stratified HR (95% CI), OS / Stratified HR (95% CI), PFS: versus placebo plus gemcitabine
Protocol: The primary endpoint was six month overall survival rate.
Key inclusion criteria were histologically or cytologically documented metastatic adenocarcinoma of the pancreas, age eighteen years or older, ECOG PS 0 or 1, adequate hematologic, hepatic, renal, and coagulation function, amylase and lipase≦2.0×ULN, adequately controlled type 1 or 2 diabetes (amended during protocol to fasting blood glucose<[…] only), fasting blood glucose≦[…], HbAlc<8%, and written informed consent.
Key exclusion criteria were uncontrolled cardiac disease and prior chemotherapy or radiation in the adjuvant or metastatic setting.

tumors in human subjects = conditions: CR subject, Ewing's sarcoma, 12 mg/kg
Protocol: Each subject was assigned to one of six dosing cohorts. […] The subjects also received individualized palliative care, as appropriate, to reduce the severity of their symptoms.
Response to treatment was assessed using the Response Evaluation Criteria in Solid Tumors (RECIST) criteria as described in Therasse et al. 2000, J Natl Cancer Inst. […] Briefly, prior to administration of the first dose, each subject was given a computerized tomography (CT) scan to determine the length of the largest measurable tumor along its longest diameter (“Baseline TM (cm)” in Table 9). CT scans were used to measure the same tumors along the same diameter at certain points after initiation of treatment (“Day X Tumor (cm)” in Table 9). Each such measurement was compared to the baseline tumor measurement for the same subject to calculate the percent increase or decrease in tumor size.

[4] = Ganitumab and Placebo (logAUCss = 0)
[5] = multivariate Cox model, ganitumab-treated arm
[6] = patients with measurable disease at baseline, plus gemcitabine
[7] = plus gemcitabine, listed as ganitumab

Substance: Ganitumab
- OS, HR (95% CI) for one unit increment in logAUCss ([1]; Ganitumab Only): 0.0421 (0.0089, 0.1983)
- PFS, HR (95% CI) for one unit increment in logAUCss ([1]; Ganitumab Only): 0.0611 (0.0160, 0.2327)
- OS, HR (95% CI) for one unit increment in logAUCss [1, 4]: 0.8288 (0.6978, 0.9845)
- PFS, HR (95% CI) for one unit increment in logAUCss [1, 4]: 0.8322 (0.7111, 0.9741)
- Log AUCss HR, effect on Overall Survival [1, 5]: 0.0842
- Log AUCss HR, effect on Progression Free Survival [1, 5]: 0.1355
- Log AUCss Parameter Estimate, effect on Overall Survival [1, 5]: −2.4742
- Log AUCss Parameter Estimate, effect on Progression Free Survival [1, 5]: −1.9986
- difference in median OS, ganitumab treatment arm versus placebo arm ([2]; Free IGF-1 high subgroup): 7.59 months
- Median OS ([2]; IGF-2 High (>=median)): 368
- OS HR, treatment vs placebo ([2]; IGF-2 High (>=median)): 0.24
- Median OS ([2]; IGF-2 Low (<median)): 217.5
- OS HR, treatment vs placebo ([2]; IGF-2 Low (<median)): 0.95
- Median OS ([2]; IGF-BP1 High (>=median)): 170
- OS HR, treatment vs placebo ([2]; IGF-BP1 High (>=median)): 0.5
- OS HR, treatment vs placebo ([2]; IGF-BP1 Low (<median)): 0.41
- Median OS ([2]; IGF-BP2 High (>=median)): 165
- OS HR, treatment vs placebo ([2]; IGF-BP2 High (>=median)): 0.69
- Median OS ([2]; IGF-BP2 Low (<median)): 487
- OS HR, treatment vs placebo ([2]; IGF-BP2 Low (<median)): 0.19
- Median OS ([2]; IGF-BP3 High (>=median)): 487
- OS HR, treatment vs placebo ([2]; IGF-BP3 High (>=median)): 0.28
- Median OS ([2]; IGF-BP3 Low (<median)): 168
- OS HR, treatment vs placebo ([2]; IGF-BP3 Low (<median)): 0.94
- Median OS ([2]; IGF-BP4 High (>=median)): 368
- OS HR, treatment vs placebo ([2]; IGF-BP4 High (>=median)): 0.39
- Median OS ([2]; IGF-BP4 Low (<median)): 174.5
- OS HR, treatment vs placebo ([2]; IGF-BP4 Low (<median)): 0.63
- Median OS ([2]; Total IGF-1 High (>=median)): 487
- OS HR, treatment vs placebo ([2]; Total IGF-1 High (>=median)): 0.25
- Median OS ([2]; Total IGF-1 Low (<median)): 142
- OS HR, treatment vs placebo ([2]; Total IGF-1 Low (<median)): 0.59
- Best Overall Response: Confirmed CR - n (%) [3, 6]: 0 (0) n (%)
- Best Overall Response: Confirmed PR - n (%) [3, 6]: 4 (10) n (%)
- Best Overall Response: PD - n (%) [3, 6]: 13 (33) n (%)
- Best Overall Response: SD (Includes Unconfirmed PR) - n (%) [3, 6]: 16 (41) n (%)
- Best Overall Response: Unconfirmed PR - n (%) [3, 6]: 0 (0) n (%)
- Best Overall Response: Unknown - n (%) [3, 6]: 6 (15) n (%)
- rate of SD+PR ([3]; plus gemcitabine): 51%
- 6-Month OS Rate (95% CI) ([3]; plus gemcitabine): 57% (41, 70)
- 12-Month OS Rate (95% CI) ([3]; plus gemcitabine): 39% (25, 54)
- Median OS, Months (95% CI) ([3]; plus gemcitabine): 8.7 (5.3, 12.2) Months
- Median PFS, Months (95% CI) ([3]; plus gemcitabine): 5.1 (2.8, 5.8) Months
- 6-Month OS Rate (95% CI) [3, 7]: 57%
- 12-Month OS Rate (95% CI) [3, 7]: 39%
- Median OS, Months (95% CI) [3, 7]: 8.7 Months
- Median PFS, Months (95% CI) [3, 7]: 5.1 Months
- Stratified HR (95% CI), OS [3]: 0.67 (0.41, 1.12)
- Stratified HR (95% CI), PFS [3]: 0.65 (0.41, 1.04)
- Stratified HR (95% CI), OS ([3]; listed as ganitumab): 0.67
- Stratified HR (95% CI), PFS ([3]; listed as ganitumab): 0.65
- time to significant symptomatic relief after the first dose (tumors in human subjects): two
